# Reference: patent US20170204102A1, “AGRICULTURAL AGENT CONTAINING 2,5-DIKETOPIPERAZINE DERIVATIVE AS ACTIVE INGREDIENT” (NAPRO BIOTEC INC., priority 2010, published 2017)
# Read-outs that look alike come from different tables or passages of the source.
# What was measured:
# [1] = system: Pectobacterium carotovorum SCC1; experiment: Inhibition of soft rot lesion in tobacco leaf; format: in vivo
# [2] = system: Pectobacterium carotovorum SCC1; experiment: Inhibition of soft rot lesion in cucumber leaf; format: in vivo
# [3] = system: Colletotrichum orbiculare; format: in vivo; settings: cucumber; for Number of anthractic lesions in first leaf: control 12.5; for Number of anthractic lesions in second leaf: control 96.8
# [4] = system: Pectobacterium carotovorum SCC1; experiment: Inhibition of naturally occurring soft rot in Chinese cabbage hydrocultured in summer; format: in vivo; settings: for Appearance of soft rot: 20 ppm, sprayed, examined 1 week later, control 58
# Source text: After spraying test compounds to hydrocultured Chinese cabbage, naturally occurring soft rot was examined 1 week later.
# cucumber leaf = experiment: Promotion of growth of cucumber leaf; settings: Cucumis sativus, read-out: Width of leaf
# Description: Plant leaves were tested with test compounds by drenching. […] 3-5 days later, the width of the leaves was measured again to compare the growth of the leaves relative to the control group.
# Colletotrichum acutatum = experiment: Inhibition of anthracnose in red pepper fruit after soil drench; settings: control 50
# [5] = system: PR-1α promoter fused to the GUS gene; experiment: PR-1α-GUS activity in tobacco leaf; format: in vivo; settings: control 54
# Description: After adding 960 μL of stop buffer (0.2M sodium carbonate) to make 1 mL, fluorescence was measured using a TKO 100 fluorometer (Hoefer Scientific Instruments, USA).
# [6] = system: anthracnose-causing Colletotrichum orbiculare; format: in vivo; settings: tobacco leaf, control 240.3
# PR-1 gene = settings: background art; cited from earlier work
# PDF1.2 gene = settings: background art; cited from earlier work
SMILES,"Area of lesion ([1]; 1 ppm, Table 4, control 100) [%]","Area of lesion ([1]; 10 ppm, Table 4, control 100) [%]","Area of lesion ([1]; 100 ppm, Table 4, control 100) [%]","Area of lesion ([2]; 1 ppm, Table 7, control 100) [%]","Area of lesion ([2]; 10 ppm, Table 7, control 100) [%]","Area of lesion ([2]; 100 ppm, Table 7, control 100) [%]",Number of anthractic lesions in first leaf ([3]; 0.1 ppm),Number of anthractic lesions in second leaf ([3]; 0.1 ppm),Number of anthractic lesions in first leaf ([3]; 1 ppm),Number of anthractic lesions in second leaf ([3]; 1 ppm),Number of anthractic lesions in first leaf ([3]; 10 ppm),Number of anthractic lesions in second leaf ([3]; 10 ppm),Number of anthractic lesions in first leaf ([3]; 100 ppm),Number of anthractic lesions in second leaf ([3]; 100 ppm),response vs control in vivo at 1 ppm (cucumber leaf) [%],response vs control in vivo at 10 ppm (cucumber leaf) [%],response vs control in vivo at 100 ppm (cucumber leaf) [%],Appearance of anthracnose (Colletotrichum acutatum; 1 ppm) [%],Appearance of anthracnose (Colletotrichum acutatum; 10 ppm) [%],Appearance of anthracnose (Colletotrichum acutatum; 100 ppm) [%],further results
"CCC(C)C1NC(=O)C2CCCN2C1=O (stereo not drawn) [Compound No. 28, 3-(1-methylpropyl)hexahydropyrrolo[1,2-a]pyrazin-1,4-dione]",12.5,82.5,2.5,55,83,65,5.3,55.3,2.3,62.3,12.3,87.3,10.8,77.3,100,120,129,0,25,0,Appearance of soft rot [4]: 49%; melting point: 104 to 105 °C
"CSC(=O)c1cccc2nnsc12 [BTH, benzo-1,2,3-thiadiazole-7-carbothioic acid S-methyl ester, reference compound]",95,95,95,90,90,90,0.8,100.3,0.8,100.3,0.8,100.3,0.8,100.3,93.8,90.5,92,25,0,0,"PR-1α-GUS activity ([5]; 1 ppm): 21,015 nM MU/10 mg/h; Number of anthractic lesions ([6]; 1 ppm): 58.3; Area of lesion ([1]; 1 ppm, Table 3, control 87.5): 52.5%; Area of lesion ([1]; 1 ppm, Table 5, control 73.75): 50%; Area of lesion ([1]; 10 ppm, Table 3, control 87.5): 52.5%; Area of lesion ([1]; 10 ppm, Table 5, control 73.75): 50%; Area of lesion ([1]; 100 ppm, Table 3, control 87.5): 52.5%; Area of lesion ([1]; 100 ppm, Table 5, control 73.75): 50%; Area of lesion ([2]; 1 ppm, Table 6, control 100): 100%; Area of lesion ([2]; 1 ppm, Table 8, control 100): 100%; Area of lesion ([2]; 10 ppm, Table 6, control 100): 100%; Area of lesion ([2]; 10 ppm, Table 8, control 100): 100%; Area of lesion ([2]; 100 ppm, Table 6, control 100): 100%; Area of lesion ([2]; 100 ppm, Table 8, control 100): 100%; Induction of expression of the PR-1 gene (PR-1 gene): induces the expression of the PR-1 gene; Induction of expression of the PDF1.2 gene (PDF1.2 gene): does not induce the expression"
"CC(C)C1NC(=O)C2CCCN2C1=O (stereo not drawn) [Compound No. 26, 3-isopropylhexahydropyrrolo[1,2-a]pyrazin-1,4-dione]",,,,,,,,,,,,,,,112,128,129,,,,"PR-1α-GUS activity ([5]; 0.1 ppm): 34,967 nM MU/10 mg/h; PR-1α-GUS activity ([5]; 1 ppm): 27,497 nM MU/10 mg/h; Number of anthractic lesions ([6]; 0.1 ppm): 67.1; Number of anthractic lesions ([6]; 1 ppm): 63.3"
"O=C1NCC(=O)N2CCCC12 (stereo not drawn) [Compound No. 29, hexahydropyrrolo[1,2-a]pyrazin-1,4-dione]",27.5,0,0,43,63,90,0.8,51.3,5.0,35.8,10.0,55.5,5.0,87.0,100,120,115,0,0,0,"Appearance of soft rot [4]: 14%; Inhibitory effect against soft rot in Chinese cabbage (in words) ([4]; Table 11, FIG. 10): very superior inhibitory effect"
